Test results as given in patent US11771124B2, “Composition comprising mannose oligosaccharide and process for making same and use thereof” (CARGILL, INCORPORATED, priority 2017, dated 2023).
Marks after values point to notes of the source that are not given here.

What was measured:
[1] = test system: C2Be1 cell line; assay: Intestinal cell proliferation in vitro (BrdU ELISA); type: cell-based
Protocol: Cells were treated with products under serum-limited conditions for 4-5 days. BrdU ELISA is used to measure the amount of proliferation, where it measures the amount of BrdU incorporated into proliferating cells (the more proliferation, the more BrdU that will be detected in the DNA of the cells). Levels of proliferation are expressed as a ratio calculated by dividing the BrdU incorporation of test wells by that of the controls that has medium only. […] The assay is repeated in triplicate on two separate occasions. […]

[2] = Trial 3: broiler performance with or without chlortetracycline; type: in vivo, broiler chickens; details: Composition A dose 0.02%

Molecule	% compared to media only (control), Mean ([1]; EGF concentration 10)	Proliferation Ratio (relative to control = 1), Mean ([1]; EGF concentration 10)	% compared to media only (control), Mean ([1]; EGF concentration 100)	Proliferation Ratio (relative to control = 1), Mean ([1]; EGF concentration 100)	BW35 ([2]; broiler chickens up to 35 days of age)	ADFI 0-35 ([2]; broiler chickens)	ADG 0-35 ([2]; broiler chickens)	BW0 ([2]; broiler chickens)	F:G 0-35 ([2]; broiler chickens)
EGF: epithelial growth factor, positive control known to affect cell proliferation	113.5%	1.13	119.6%	1.20					
CN(C)[C@@H]1C(O)=C(C(N)=O)C(=O)[C@@]2(O)C(O)=C3C(=O)c4c(O)ccc(Cl)c4[C@@](C)(O)[C@H]3C[C@@H]12 [CTC, chlortetracycline]					1978.6^b g	90.8c g	55.4^b g	40.2^ns g	1.64^b
